# Data published in US12186283B2, “Bismuth-thiol compositions and methods of use” (Microbion Corporation, priority 2018, dated 2025).
# Where “and” joins values, the source holds several entries; their conditions need not be identical. Equal entries are not always repeated. Where two headings read alike, the source gives them in different places.
# Tests used:
# [1] = system: S. aureus ATCC 29213; conditions: control strain ATCC 29213 S. aureus; per CLSI M100-S24 or provided by Microbion; cited from earlier work
# [2] = system: P. aeruginosa; conditions: P. aeruginosa isolate 103, CLSI QC range in parenthesis, cited from earlier work
# [3] = system: Escherichia coli; conditions: cited from earlier work
# [4] = system: Pseudomonas aeruginosa; conditions: P. aeruginosa ATCC 27853, QC organism; cited from earlier work
# [5] = system: Pseudomonas aeruginosa strain PA01; experiment: Bacterial killing curves with and without 10% CF patient sputum; conditions: for bactericidal activity: PA01, 0.1 μg/mL; for effect of CF patient sputum on bactericidal activity: PA01, 10% CF patient sputum
# [6] = Aerosol particle size distribution of nebulized suspensions (cascade impactor / APS)
# [7] = system: M. avium; experiment: MIC against CF isolates (Example 5); format: cell-based; conditions: Mycobacterium avium, strain MAC101, M. avium, MAC reference strain, blood isolate from HIV patient
# [8] = system: anaerobes (Bacteroides fragilis and Clostridium difficile); experiment: Agar dilution MIC (Example 11), group statement; format: cell-based; conditions: B. fragilis and C. difficile QC isolates, C. difficile ribotypes incl. 027
# Procedure: The test agents were stored at room temperature until assayed. All test agents were suspended and diluted in 100% dimethylsulfoxide (DMSO), and were ultimately tested at a final concentration of 0.06-64 μg/mL.
# The susceptibility of anaerobic bacteria was determined by agar dilution using Brucella Agar (BD/BBL; Lot No. 5237692) supplemented with 5 μg/mL hemin (Sigma, St. Louis, MO; Lot No. 108K1088), 1 μg/mL Vitamin K1 and 5% (v/v) laked sheep blood (Cleveland Scientific, Bath, OH; Lot No. 322799).
# MIC values for anaerobic bacteria were determined using a reference agar dilution method as described by CLSI (6). Organisms were grown at 35° C. in the Bactron II Anaerobic Chamber (Shel Lab, Cornelius, OR) for approximately 48 hr prior to the assay. Drug dilutions and drug-supplemented agar plates were prepared manually per CLSI (6). The plates were allowed to stand at room temperature for 1 hr to allow the agar surface to dry and pre-reduced for approximately 1 hr in the anaerobe chamber prior to inoculation. Each isolate was suspended to the equivalent of a 0.5 McFarland standard in Brucella broth using a turbidity meter (Dade Behring MicroScan, West Sacramento, CA). Each bacterial cell suspension was then diluted 1:10 in Brucella broth and transferred to wells in a stainless steel replicator block which was used to inoculate the test plates. […] The MIC was read per CLSI guidelines (6).
# [9] = system: Aspergillus spp.; experiment: Broth microdilution MIC/MEC, mold (Example 13); format: cell-based; conditions: for MEC (minimum effective concentration): read-out: MEC at 48 hr (MIC0 not observed)
# [10] = system: Pseudomonas aeruginosa; experiment: Broth microdilution MIC (Example 12)
# [11] = E. coli ATCC 25922, QC organism
structure (smiles),measurement,setting,value
"C1C[S][Bi]([S]CC[S][Bi]2[S]CC[S]2)[S]1 [BisEDT, bismuth-1,2-ethanedithiol]",Expected MIC: goal,[1],0.25 to 0.5 µg/mL
same,"MIC, CLSI QC range",[2]; Table 24,(0.5-4)^2 μg/mL
same,"MIC, CLSI QC range",[2]; Table 26,(0.5-4) μg/mL
same,"MIC, QC range",[3]; [11],(0.5-4)^1 μg/mL
same,"MIC, QC range",[4],(0.5-4) μg/mL
same,bactericidal activity,[5],not bactericidal
same,effect of CF patient sputum on bactericidal activity,[5],partially inhibited
same,Particle Size (GSD),"[6]; BisEDT Lot # ED268-1-11-01, formulation 25 mg/mL, APS",2.98 (1.8) μm
same,Particle Size (GSD),"[6]; BisEDT Lot # ED268-1-11-01, formulation 50 mg/mL, APS",2.83 (1.9) μm
same,Particle Size (GSD),"[6]; BisEDT Lot # ED268-1-11-01, formulation 75 mg/mL, APS",3.16 (1.70) μm
same,Particle Size (GSD),"[6]; BisEDT Lot # ED268-1-11-01, formulation 100 mg/mL, APS",3.53 (1.71) μm
same,Particle Size (GSD),"[6]; BisEDT Lot # ED268-1-11-01, formulation 100* mg/mL (asterisk not explained), APS",3.60 (1.71) μm
same,Particle Size (GSD),"[6]; BisEDT Lot # ED268-1-11-01 suspension, formulation 1 mg/mL, PARI LC PLUS nebulizer, APS",1.65 (1.6) μm
same,Particle Size (GSD),"[6]; BisEDT Lot # XL-47-125, 300 mOsmol/kg vehicle, formulation 10 mg/mL",1.61 (1.65) μm
same,Particle Size (GSD),"[6]; BisEDT Lot # XL-47-125, 300 mOsmol/kg vehicle, formulation 50 mg/mL",2.79 (1.69) μm
same,Particle Size (GSD),"[6]; BisEDT Lot # XL-47-125, 300 mOsmol/kg vehicle, formulation 100 mg/mL (two tests)",2.90 (1.67) μm and 2.60 (1.65) μm
same,MMAD,"[6]; exposure aerosols of the rat efficacy study, In-Tox Mercer Impactor",1.54 μm
"CC(S)C(C)S.[Bi] (stereo not drawn) [BisBDT, bismuth-2,3-butanedithiol]",MIC,[7],1 µg/mL
same,MIC values (range across isolates),[8],1 to 4 µg/mL
same,MIC,"[9]; 24 h, A. flavus ATCC 22546, 24 hr, read-out: MIC0 24 hr (complete inhibition)",1 µg/mL
same,MIC,"[9]; 24 h, A. flavus ATCC 204304, 24 hr, read-out: MIC0 24 hr (complete inhibition)",4 µg/mL
same,MIC,"[9]; 24 h, A. flavus MMX 7935, 24 hr, read-out: MIC0 24 hr (complete inhibition)",8 µg/mL
same,MIC,"[9]; 24 h, A. fumigatus ATCC 204305, 24 hr, read-out: MIC0 24 hr (complete inhibition)",8 µg/mL
same,MIC,"[9]; 24 h, A. fumigatus ATCC MYA-3626, 24 hr, read-out: MIC0 24 hr (complete inhibition)",2 µg/mL
same,MIC,"[9]; 24 h, A. fumigatus MMX 5934, 24 hr, read-out: MIC0 24 hr (complete inhibition)",2 µg/mL
same,MIC,"[9]; 24 h, A. fumigatus MMX 5939, 24 hr, read-out: MIC0 24 hr (complete inhibition)",2 µg/mL
same,MIC,"[9]; 24 h, read-out: MIC0 24 hr (complete inhibition), A. terreus MMX 8229, 24 hr",0.25 µg/mL
same,MIC,"[9]; 48 h, A. flavus ATCC 22546, 48 hr, read-out: MIC0 48 hr (complete inhibition)",2 µg/mL
same,MEC (minimum effective concentration),"[9]; 48 h, A. flavus ATCC 204304, 48 hr",4 µg/mL
same,MIC,"[9]; 48 h, A. flavus MMX 7935, 48 hr, read-out: MIC0 48 hr (complete inhibition)",8 µg/mL
same,MEC (minimum effective concentration),"[9]; 48 h, A. fumigatus ATCC 204305, 48 hr",4 µg/mL
same,MIC,"[9]; 48 h, A. fumigatus ATCC MYA-3626, 48 hr, read-out: MIC0 48 hr (complete inhibition)",4 µg/mL
same,MEC (minimum effective concentration),"[9]; 48 h, A. fumigatus MMX 5934, 48 hr",4 µg/mL
same,MEC (minimum effective concentration),"[9]; 48 h, A. fumigatus MMX 5939, 48 hr",4 µg/mL
same,MIC,"[9]; 48 h, A. terreus MMX 8229, 48 hr, read-out: MIC0 48 hr (complete inhibition)",1 µg/mL
same,MIC 24 hr,"[9]; A. flavus ATCC 204304 (QC, Table 110), 24 hr",4 µg/mL
same,"MIC 48 hr, marked with footnote c","[9]; A. flavus ATCC 204304 (QC, Table 110), 48 hr, footnote c not given, probably MEC",4^c
same,MIC 24 hr,"[9]; A. fumigatus ATCC MYA-3626 (QC, Table 110), 24 hr",2 µg/mL
same,MIC 48 hr,"[9]; A. fumigatus ATCC MYA-3626 (QC, Table 110), 48 hr",4 µg/mL
same,MIC,[9]; read-out: MIC0 48 hr (complete inhibition),2 µg/mL
same,Expected MIC: goal,[1],0.25 µg/mL
same,bactericidal activity,[5],not bactericidal
same,more surviving in cultures with sputum,"[5]; PA01, 4 μg/mL, 10% CF sputum, 3-6 hours",0.5-0.8 log CFU/mL
same,killing over the assay,"[5]; PA01, 4 μg/mL, absence of sputum, 6 hour assay",about 1 log
same,time to sterilization below the limit of detection,"[5]; PA01, 20 μg/mL, with and without sputum",≤ 5 h
same,effect of CF patient sputum on bactericidal activity,[5],partially inhibited
C[C@@H](O)[C@H]1C(=O)N2C(C(=O)O)=C(S[C@@H]3CN[C@H](C(=O)N(C)C)C3)[C@H](C)[C@H]12 [MEM],"MIC, CLSI QC range",[2]; Table 24,(0.12-1) μg/mL
same,"MIC, CLSI QC range",[2]; Table 26,(0.12-1) μg/mL
same,"MIC, QC range",[3]; [11],(0.008-0.06) μg/mL
same,"MIC, QC range","[3]; E. coli ATCC 35218, QC organism",(0.008-0.06) μg/mL
same,"MIC, QC range",[4],(0.12-1) μg/mL
same,MIC,"[10]; P. aeruginosa ATCC 27853, QC organism",0.25 µg/mL
same,MIC,"[10]; Pseudomonas aeruginosa CDC 230, VIM/OXA",>8 µg/mL
same,MIC,"[10]; Pseudomonas aeruginosa CDC 231, KPC/OXA",>8 µg/mL
same,MIC,"[10]; Pseudomonas aeruginosa CDC 241, IMP/OXA",>8 µg/mL
same,MIC,"[10]; Pseudomonas aeruginosa CDC 246, NDM/OXA",>8 µg/mL
same,MIC,"[10]; Pseudomonas aeruginosa CDC 250, NDM/OXA",>8 µg/mL
same,MIC,"[10]; Pseudomonas aeruginosa CDC 356, KPC",>8 µg/mL
same,MIC,"[10]; Pseudomonas aeruginosa CDC 439, IMP",>8 µg/mL
same,MIC,"[10]; Pseudomonas aeruginosa CDC 444, VIM",>8 µg/mL
same,MIC,"[10]; Pseudomonas aeruginosa CDC 457, VIM",>8 µg/mL
same,MIC,"[10]; Pseudomonas aeruginosa CDC 516, KPC/AmpC",>8 µg/mL
same,MIC,"[10]; Pseudomonas aeruginosa CDC 518, KPC/AmpC",>8 µg/mL
